Assay results from patent publication US20100190710A1, “IL-23 RECEPTOR ANTAGONISTS AND USES THEREOF” (Valorisation HSJ, Societe en Commandite, priority 2007, published 2010).
“Also recorded” adds a separate entry of the source. Peptide text beside a SMILES is read from it.

Tests used:
IL-23R = target: T1, IL-23R (Mus musculus, UniProt Q8K4B4); test: IL-23-induced STAT3 phosphorylation in differentiated TH17 cells (Alpha Screen SureFire p-STAT-3); assay type: cell-based; conditions: listed as APG-2309
T1 construct: Spleens were sterilely removed from mice, sliced, and mashed in the presence of PBS buffer; from tissue; host or cells: mouse spleen: freshly isolated splenocytes, and CD4+ cells differentiated into TH17 cells
T1 sequence (Q8K4B4 24-644): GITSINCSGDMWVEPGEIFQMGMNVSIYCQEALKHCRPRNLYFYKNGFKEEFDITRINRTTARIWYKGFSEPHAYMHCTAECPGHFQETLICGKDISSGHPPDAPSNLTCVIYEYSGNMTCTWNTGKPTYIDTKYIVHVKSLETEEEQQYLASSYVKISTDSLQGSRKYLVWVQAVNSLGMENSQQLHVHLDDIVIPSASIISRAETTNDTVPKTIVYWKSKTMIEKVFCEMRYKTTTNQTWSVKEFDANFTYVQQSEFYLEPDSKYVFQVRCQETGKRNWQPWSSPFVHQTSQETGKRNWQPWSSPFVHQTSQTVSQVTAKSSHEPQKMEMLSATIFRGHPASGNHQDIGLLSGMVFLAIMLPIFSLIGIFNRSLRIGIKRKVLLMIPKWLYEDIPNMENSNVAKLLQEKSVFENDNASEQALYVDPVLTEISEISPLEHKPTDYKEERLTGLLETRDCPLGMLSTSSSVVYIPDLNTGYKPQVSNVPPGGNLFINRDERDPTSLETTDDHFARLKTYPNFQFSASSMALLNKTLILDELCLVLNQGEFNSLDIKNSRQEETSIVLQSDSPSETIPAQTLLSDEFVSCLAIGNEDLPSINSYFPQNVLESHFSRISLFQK
Experimental: CD4+ cells were isolated from 2.5×10^8 splenocytes with the EasySep isolation kit (StemCell Technologies) according to the manufacturer's instructions. CD4+ cells were incubated overnight with non-essential amino acids and anti-CD3 and CD28 antibodies (see above). The next day the cells were split into 12-well plates (1-2×10^6 cells/well) and incubated with complete RPMI medium (10% FBS, Pen/Strep, and non-essential amino acids (1×)) and a differentiation cocktail containing 2 μg/ml of anti-CD3, 2 μg/ml of anti-CD28, 5 ng/ml of TGFb1, 20 ng/ml of IL-6, 10 ng/ml of IL-23, 2 μg/ml of anti-rat anti IFNγ and 10 μg/ml of anti-mouse IL-4 (final concentrations).
Splenocytes or TH17 cells were distributed in 384-well plates (Optiplate; Perkin Elmer) (100,000 cells/well). Cells were pre-incubated for 30 minutes with different concentrations of peptide APG-2305 or APG-2309 and incubated with 25 ng/ml of IL-23 (R&D systems) for 10 minutes. STAT3 phosphorylation was determined with the kit Alpha Screen SureFire p-STAT-3 assay from Perkin Elmer according to manufacturer's instructions. Briefly, after incubation with IL-23, cells were lysed and contacted with (1) protein A acceptor conjugated beads coated with anti-p-STAT-3 (Tyr705) and (2) streptavidin-coated donor beads. The resulting signal was measured with a Perkin Elmer Wallac En vision 2104 Multilabel reader. […]

[1] = test system: PMA-induced dermatitis (ear); assay type: in vivo, CD-1 mice
From the text: FIGS. 10A and 10B are a series of images and a graph showing efficacy of topical anti-IL-23R peptides in treating PMA-induced dermatitis. PMA-induced dermatitis is often utilized as a model of chronic (and scaling) dermatitis, reminiscent of psoriatic dermatitis. […] FIG. 10B is a graph showing the differences in weight (mg) of ear punches with control ears untreated with PMA. […] FIGS. 11A to 11C are a series of images and graphs showing dose-response to topical administration of peptide 2309 in PMA-induced dermatitis. FIG. 11A is a photographic representation of dose-dependent effects of topical administration of peptide 2309 (mixed in PEG-400) on PMA-induced dermatitis in CD-1 mice. Concentrations of peptide 2309≧100 nM show significant efficacy.

MOG-induced EAE = test: Experimental Autoimmune Encephalitis (EAE) model; assay type: in vivo, C57/BL6 mice; conditions: for clinical signs of EAE: intraperitoneal
IL-23 receptor = target: T2, IL-23 receptor (Homo sapiens, UniProt Q5VWK5); test: IL-23-induced STAT3 phosphorylation in PMA-activated HL-60 monocytes (Western blot); assay type: cell-based; parameters: endogenous in cells; conditions: PMA-activated HL-60 human monocytes; peptide 1 μM, 30 min pre-incubation; IL-23 10 ng/ml, 15 min
T2 sequence (Q5VWK5 24-629): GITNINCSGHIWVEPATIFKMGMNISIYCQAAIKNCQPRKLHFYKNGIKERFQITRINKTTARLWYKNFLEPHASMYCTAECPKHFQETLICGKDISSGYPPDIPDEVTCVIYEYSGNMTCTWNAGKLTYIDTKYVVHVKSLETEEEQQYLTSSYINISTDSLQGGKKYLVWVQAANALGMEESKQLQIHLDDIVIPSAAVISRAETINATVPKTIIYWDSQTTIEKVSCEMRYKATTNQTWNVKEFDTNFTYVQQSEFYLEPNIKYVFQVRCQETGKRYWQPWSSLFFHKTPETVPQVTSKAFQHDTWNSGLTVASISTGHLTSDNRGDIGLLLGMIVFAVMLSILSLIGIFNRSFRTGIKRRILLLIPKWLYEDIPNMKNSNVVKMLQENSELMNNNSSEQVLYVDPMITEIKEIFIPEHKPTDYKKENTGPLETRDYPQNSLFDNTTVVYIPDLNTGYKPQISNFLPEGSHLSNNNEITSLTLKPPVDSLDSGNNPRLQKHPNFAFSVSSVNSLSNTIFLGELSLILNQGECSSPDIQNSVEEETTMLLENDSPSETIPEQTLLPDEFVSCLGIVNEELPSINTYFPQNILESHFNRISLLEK
Experimental: FIG. 2 is a graph showing the results of efficacy screening of peptides designed from the IL-23 receptor. HL-60 human monocytes were pre-incubated for 30 minutes with the particular peptides (1 μM) and stimulated for 15 minutes with IL-23 (10 ng/ml). Western Blot analysis of phosphorylated-STAT3 and total STAT3 was performed on cell lysates. Immunoblot densitometry was measured using ImagePro4+ software. […] FIGS. 3A and 3B are graphs showing inhibition of IL-23-induced STAT3 phosphorylation and TNFα generation. […] Western Blot analysis was performed on cell lysates, and immunoblot densitometry was measured using ImagePro4+ software. […] TNFα production was quantified by ELISA 24 hours after stimulation with IL-23 using the Quantikine ELISA Kit (R&D systems). […] D-peptides 2303, 2305, 2307 and 2309 (1 μM) inhibit IL-23-induced STAT3 phosphorylation in phorbol 12-myristate 13-acetate (PMA)-activated human monocytes (HL-60) (FIG. 2).

[2] = three times a day (3 mg/kg/day), Sudan black stain, listed as APG-2309

- effect on IL-23-induced STAT3 phosphorylation (IL-23R): inhibit; also recorded: showed efficacy
- EC50 ([1]; mouse, in vivo): ~50 nM
- transdermal penetration ([1]; mouse, in vivo): effective transdermal penetration
SMILES: CSCC[C@@H](N)C(=O)N[C@H](CCC(=O)O)C(=O)N[C@H](CCC(=O)O)C(=O)N[C@H](CO)C(=O)N[C@H](CCCCN)C(=O)N[C@H](CCC(N)=O)C(=O)N[C@H](CC(C)C)C(=O)N[C@H](CCC(N)=O)C(=O)N[C@H](CC(C)C)C(=O)O [Peptide 2309, MEESKQLQL] (HELM PEPTIDE1{[dM].[dE].[dE].[dS].[dK].[dQ].[dL].[dQ].[dL]}$$$$V2.0; N-terminus and C-terminus assumed)
- PMA-induced edema (weight of ear punches) ([1]; topical dose-response (FIG. 11B)): dose-dependent reduction in PMA-induced edema
- capillary leak (Evan's blue technique) ([1]; topical dose-response (FIG. 11C)): diminished capillary leak
- concentrations showing significant efficacy ([1]; topical in PEG-400 (FIG. 11A)): ≥ 100 nM
- EAE-induced demyelination of the cerebellum (MOG-induced EAE; [2]): protects against EAE-induced demyelination of the cerebellum; also recorded: totally prevents
- EAE-induced demyelination of the spinal cord (MOG-induced EAE; [2]): protects against EAE-induced demyelination of the spinal cord; also recorded: totally prevents
- clinical signs of EAE (MOG-induced EAE; treatment three times a day): completely abolished the induction of the disease symptoms
- clinical signs of EAE (MOG-induced EAE; twice a day at 2 mg/kg/day): retarded the appearance of the clinical signs of EAE
- effect on IL-23-induced STAT3 phosphorylation (IL-23 receptor): demonstrable efficacy; also recorded: inhibit; also recorded: remained capable of inhibiting
